Series [1] deals with C-26 cells. The series is described as follows: In vivo therapeutic activity, C-26 tumor survival. More on the design: species or system mice. The conditions noted are these: C-26 tumor i.p., 10 mg/kg i.v. five days after inoculation. The text has this:
Untreated (control) mice died quickly with a median survival of 13 days (not shown).
In another study, mice were inoculated i.p. with C-26 cells (10^6 cells).

Series [2] has as its system KB-V. The experiment in a line: In vitro cytotoxicity (growth inhibition, methylene blue). It is filed as cell-based, human. Conditions: KB-V (doxorubicin-resistant); continuous exposure 72 hours. Here is the method:
(§1) M109-R and KB-V cell lines are doxorubicin-resistant sublines of M109-S and KB, respectively. The cells were exposed continuously to the drug formulation for 72 hours following the experimental details described by Horowitz, et al., Biochimica et Biophysica Acta, 1109:203-209 (1992) and also in Example 2.
(§2) Cells for each line were exposed continuously to drug for 72 hours. Other experimental details were as described by Horowitz et al., Biochem Biophys Acta, 1109(2):203 (1992). Briefly, 5×10^3 cells from exponentially growing cultures in 200 μL aliquots were plated onto 96-well flat-bottom microtiter plates. […] For each 10-fold increase in drug concentration, six drug concentration points were tested. Each test was performed in triplicate wells and in two parallel plates. The cells were treated continuously for 72 hours. The cultures were fixed by the addition of 50 μL 2.5% glutaraldehyde to each well for 10 minutes. The plates were washed three times with de-ionized water, once with 0.1 M borate buffer (pH 8.5) and then stained for 60 minutes with 100 μL methylene blue (1% in 0.1 M buffer borate, pH 8.5) at room temperature. The plates were rinsed in five baths of de-ionized water to remove non-cell bound dye and were then dried. The dye was extracted with 200 μL 0.1 M HCl for 60 min at 37° C. and the optical density was determined using a microplate spectrophotometer.
(§3) The growth rate was calculated by dividing the doubling times of drug-treated cells with those of the control cells.

Series [3] relates to C26. The description is as above. It is filed as cell-based, human. Conditions: continuous exposure 72 hours. Here is the method:
as §1, §2, §3

Series [4] concerns KB. The series is described as above. The series is classed as cell-based, human. The conditions noted are these: continuous exposure 72 hours. Here is the method:
as §1, §2, §3

Series [5] deals with M109-R. The series is described as follows: In vitro uptake of doxorubicin into tumor cells. The conditions noted are these: 24 exposure. It is filed as cell-based, mouse. How it is done:
(§4) There is a greater drug accumulation in cells treated with lipo-dox-AG than in those treated with lipo-dox-AS.
(§5) Cellular accumulation of doxorubicin was assayed by a method similar to that described in Chambers, S. K. et al., Cancer Res., 49:6275-6279 (1989). […] At the end of the incubation, the cells were rinsed three times with PBS and the drug was extracted from the cells with 1 mL acidified isopropanol (0.075 M HCl in 90% isopropanol), for 20 hours at 4° C. Doxorubicin concentration was determined spectrofluorometrically using an excitation wavelength of 470 nm and an emission wavelength of 590 nm. The fluorescence intensity emitted was translated into doxorubicin-equivalents based on a doxorubicin standard curve, after readings of untreated background cells were subtracted.

The nature of series [6]: Solubility and precipitation of doxorubicin in ammonium salt solutions. It is filed as physicochemical. How it is done: The higher release rate is a result of using glucuronate as the balancing anion. […] In addition, doxorubicin precipitates at less than 2 mM concentration in the presence of sulfate ions, while a much higher concentration of doxorubicin is required for precipitation to occur in the presence of glucuronate ions. Accordingly, when glucuronate is the balancing anion, more of the therapeutic agent is in a soluble form and therefore it is more available for release from the liposomes. Further, the permeability of glucuronate through the liposomal membranes is very low, possibly due to its low pKa, its bulkiness and/or polarity, making it very efficient for maintaining the ammonium ion gradient for loading of the therapeutic agents.

For series [7], the system named is M109-R. The experiment in a line: In vitro cytotoxicity (growth inhibition, methylene blue). The conditions noted are these: M109-R (doxorubicin-resistant); continuous exposure 72 hours. It is filed as cell-based, mouse. How it is done:
as §1
as §2, with “The plates were rinsed in five baths of de-ionized water to remove non-cell bound dye and were then dried.” left out
as §3

Series [8] concerns M109-S. Described as above. The series is classed as cell-based, mouse. Conditions: continuous exposure 72 hours. Here is the method: as §1
as §2, with “The plates were rinsed in five baths of de-ionized water to remove non-cell bound dye and were then dried.” left out
as §3

For series [9], the system named is KB-V. The series is described as follows: In vitro uptake of doxorubicin into tumor cells. The series is classed as cell-based, human. How it is done:
as §4, §5

In series [10] the test system is KB. The experiment in a line: In vitro uptake of doxorubicin into tumor cells. It is filed as cell-based, human. How it is done:
as §4, §5

Data on one compound can be found in patent publication US20100247629A1, “Method for drug loading in liposomes” (Yissum Research Development Company of the Hebrew …, priority 2003, published 2010).

SMILES strings stand for the structures.

For orientation: IC50 means the midpoint of a concentration-inhibition curve. For the compound `COc1cccc2c1C(=O)c1c(O)c3c(c(O)c1C2=O)C[C@@](O)(C(=O)CO)C[C@@H]3O[C@H]1C[C@H](N)[C@H](O)[C@H](C)O1` [free doxorubicin, doxorubicin], the “increase in mean survival time over control” value in series [1] stood at 4 days. Moreover, the mean survival time in series [1] is reported as 17 days. The IC50 in [2] is 690 nM; in series [3], 960 nM; in series [4], 40 nM; in series [7], 2000 nM; in series [8] it was 560 nM. Further, the “Doxorubicin Uptake” value in series [5] was 80 (3) ng DOX/10^6 cells; in series [9] (1 hr exposure), 311 (22) ng DOX/10^6 cells; in [9] (5 hr exposure) it was 931 (21) ng DOX/10^6 cells; in series [10] (1 hr exposure), 426 (33) ng DOX/10^6 cells; in series [10] (5 hr exposure), 937 (46) ng DOX/10^6 cells; in [10] (24 hr exposure), 840 (15) ng DOX/10^6 cells. Further, in series [6] (250 mM AG solution vs 250 mM AS solution), the “solubility in 250 mM ammonium glucuronate relative to 250 mM ammonium sulfate” value was “approximately 100 fold”. Besides, the “concentration at which doxorubicin precipitates” value in [6] (in the presence of sulfate ions) was “less than 2 mM”.
